Columns and labels:
[1] = Concentration that produces 50 % displacement of specific [3H]clonidine binding to Alpha adrenergic receptor in rat brain cortical membrane preparations.; assay type: cell membranes
[2] = target: D(2) dopamine receptor (Rattus norvegicus, UniProt P61169); assay: Concentration that produces 50 % displacement of specific [3H]spiroperidol binding to rat caudate membrane preparations.
[3] = target: T1, cyclic AMP phosphoprotein (Rattus norvegicus, UniProt Q712U5); assay: Effective concentration that gives maximal stimulation of cyclic AMP production over the concentration range tested; b=Inactive; assay type: functional
T1 sequence (Q712U5 whole entry): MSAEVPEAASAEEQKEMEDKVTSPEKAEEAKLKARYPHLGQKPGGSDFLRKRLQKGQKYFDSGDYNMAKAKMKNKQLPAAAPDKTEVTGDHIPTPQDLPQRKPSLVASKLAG

Sequence of D(2) dopamine receptor (P61169 whole entry): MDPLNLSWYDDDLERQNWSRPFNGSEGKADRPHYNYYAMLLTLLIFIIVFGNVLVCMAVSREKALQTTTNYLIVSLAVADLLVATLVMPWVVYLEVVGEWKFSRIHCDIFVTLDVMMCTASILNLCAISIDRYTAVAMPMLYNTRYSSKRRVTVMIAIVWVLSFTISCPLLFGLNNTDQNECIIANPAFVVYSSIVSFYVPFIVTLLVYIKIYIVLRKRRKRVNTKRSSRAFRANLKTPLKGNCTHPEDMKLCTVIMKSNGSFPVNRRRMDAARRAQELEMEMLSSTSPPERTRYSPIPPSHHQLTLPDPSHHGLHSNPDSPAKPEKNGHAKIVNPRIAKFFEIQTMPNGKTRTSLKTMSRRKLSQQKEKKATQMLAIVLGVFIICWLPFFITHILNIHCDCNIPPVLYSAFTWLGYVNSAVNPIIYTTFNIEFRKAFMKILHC

Row | SMILES | IC50 [1] [µM] | IC50 [2] [µM] | EC50 [3]
1 | CN1Cc2c(N)cccc2C(c2ccc(O)c(O)c2)C1 (stereo not drawn) | 1.39 | 92 | –
2 | CN1Cc2c(N)cccc2[C@H](c2ccc(O)c(O)c2)C1 | 0.6 | 85.8 | –
3 | CN1Cc2c(N)cccc2[C@@H](c2ccc(O)c(O)c2)C1 | 27.7 | 99.1 | Not Active
4 | NCCc1ccc(O)c(O)c1 [DOPAMINE] | 0.061 | – | –

— ChEMBL document CHEMBL1122767, “Synthesis, resolution, absolute stereochemistry, and enantioselectivity of 3',4'-dihydroxynomifensine” (J Med Chem, 1984)
